The target in the assay is T1, CK1α (Homo sapiens, UniProt P48729+Q96SW2).
T1 construct: expressed in transfected cells
Nature of the assay: CK1α ePL degradation assay in MDS-L cells. The conditions noted are these: MDS-L cells expressing ePL-tagged CK1α; for DC50: concentration giving 50% CK1α degradation vs DMSO control; for Y: lowest measured CK1α level normalized to DMSO control. It is filed as cell-based. The procedure:
The following is an example of an assay that can be used to determine the CK1α degradation activity of Isoindolinone Carboxamide Compounds in a cell line, for example, the MDS-L cell line.
Compounds were dispensed by an acoustic dispenser (ATS acoustic transfer system from EDC Biosystems) into a 384-well in a 10 point dose-response curve using 3-fold dilutions starting at 10 μM and going down to 0.0005 μM in DMSO. […] Assay plates were incubated at 37° C. with 5% CO2 for the indicated times. At the different time points, 25 μL of the InCELL Hunter™ Detection Reagent Working Solution (catalog number 96-0002, DiscoverX, Fremont, Calif.) was added to each well and incubated at RT for 30 min protected from light. After 30 min, luminescence was read on a PHERAstar luminometer (BMG LABTECH, Cary, N.C.).
CK1α levels in compound-treated wells were normalized to that of DMSO control and expressed as percent of control (PoC) (y).
The lowest measured CK1α level normalized to DMSO control in response to compound treatment, termed Y value, was used to characterize the compound-mediated CK1α degradation efficiency.

The record followed here is patent US11306101B2 (Celgene Corporation, priority 2019, dated 2022).

T1 sequence (P48729 whole entry): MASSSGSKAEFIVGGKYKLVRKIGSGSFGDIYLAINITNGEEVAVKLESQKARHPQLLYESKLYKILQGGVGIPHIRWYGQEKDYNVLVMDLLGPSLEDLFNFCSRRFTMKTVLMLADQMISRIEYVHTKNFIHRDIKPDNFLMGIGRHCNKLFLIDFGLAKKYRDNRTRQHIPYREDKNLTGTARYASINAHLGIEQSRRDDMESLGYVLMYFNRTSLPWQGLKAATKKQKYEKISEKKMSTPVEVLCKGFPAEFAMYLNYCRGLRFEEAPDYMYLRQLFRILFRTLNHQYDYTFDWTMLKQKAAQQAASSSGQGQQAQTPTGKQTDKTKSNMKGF
T1 sequence (Q96SW2 whole entry): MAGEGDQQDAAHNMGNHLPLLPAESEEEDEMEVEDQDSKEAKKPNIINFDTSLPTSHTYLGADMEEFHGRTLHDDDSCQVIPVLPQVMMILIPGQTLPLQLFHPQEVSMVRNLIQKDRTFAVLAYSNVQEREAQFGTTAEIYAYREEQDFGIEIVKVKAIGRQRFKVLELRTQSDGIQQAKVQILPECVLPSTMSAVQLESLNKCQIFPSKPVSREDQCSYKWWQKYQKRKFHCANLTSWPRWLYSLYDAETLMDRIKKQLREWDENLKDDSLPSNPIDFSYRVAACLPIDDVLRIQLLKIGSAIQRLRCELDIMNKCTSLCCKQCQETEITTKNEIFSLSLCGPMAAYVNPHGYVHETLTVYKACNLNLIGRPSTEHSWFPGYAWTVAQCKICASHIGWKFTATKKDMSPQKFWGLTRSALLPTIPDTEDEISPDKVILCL
T1 sequence (Q16531 whole entry partner): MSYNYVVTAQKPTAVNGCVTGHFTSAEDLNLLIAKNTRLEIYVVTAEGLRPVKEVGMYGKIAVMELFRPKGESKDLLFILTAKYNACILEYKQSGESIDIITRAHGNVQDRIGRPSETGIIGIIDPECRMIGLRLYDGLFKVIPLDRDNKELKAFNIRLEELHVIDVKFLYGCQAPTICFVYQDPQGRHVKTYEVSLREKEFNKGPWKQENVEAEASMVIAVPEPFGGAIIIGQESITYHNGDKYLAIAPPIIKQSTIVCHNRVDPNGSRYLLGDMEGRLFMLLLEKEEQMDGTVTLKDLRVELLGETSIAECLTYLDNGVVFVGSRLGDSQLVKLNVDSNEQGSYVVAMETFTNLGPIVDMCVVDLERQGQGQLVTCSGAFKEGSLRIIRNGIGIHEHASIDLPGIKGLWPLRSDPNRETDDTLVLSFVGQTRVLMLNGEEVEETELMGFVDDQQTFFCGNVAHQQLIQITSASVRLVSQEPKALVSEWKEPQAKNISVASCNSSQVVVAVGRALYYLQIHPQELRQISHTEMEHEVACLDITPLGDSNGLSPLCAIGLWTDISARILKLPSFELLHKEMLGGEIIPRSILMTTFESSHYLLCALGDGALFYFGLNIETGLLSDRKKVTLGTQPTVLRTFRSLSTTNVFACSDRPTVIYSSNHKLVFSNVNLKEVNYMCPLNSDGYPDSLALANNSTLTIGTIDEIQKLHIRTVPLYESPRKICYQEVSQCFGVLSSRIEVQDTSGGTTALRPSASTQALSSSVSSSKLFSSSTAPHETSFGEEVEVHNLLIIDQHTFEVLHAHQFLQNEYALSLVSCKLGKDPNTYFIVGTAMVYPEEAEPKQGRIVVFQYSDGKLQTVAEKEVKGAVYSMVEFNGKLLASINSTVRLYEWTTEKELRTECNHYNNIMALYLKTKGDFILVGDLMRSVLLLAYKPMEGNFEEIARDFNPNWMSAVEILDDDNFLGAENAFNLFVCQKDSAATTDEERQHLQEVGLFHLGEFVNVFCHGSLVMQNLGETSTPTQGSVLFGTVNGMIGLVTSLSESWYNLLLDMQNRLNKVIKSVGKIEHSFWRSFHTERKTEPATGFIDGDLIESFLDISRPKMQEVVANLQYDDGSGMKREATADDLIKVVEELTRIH

By DC50 is commonly meant the concentration giving 50% degradation. A low value points to degradation at low concentration. In the case of `O=C1CCC(N2Cc3cc(C(=O)N[C@H](c4ccccc4C(F)(F)F)C(F)(F)F)ccc3C2=O)C(=O)N1` (stereo partly drawn) [Example 47, 2-(2,6-dioxopiperidin-3-yl)-1-oxo-N-((R)-2,2,2-trifluoro-1-(2-(trifluoromethyl)phenyl)ethyl)isoindoline-5-carboxamide], the DC50 was less than 100 nM and the Y entry is “* (a Y value (shown as *) of 0<Y≤20%)”.

Regarding `O=C1CCC(N2Cc3cc(C(=O)N[C@H](c4ccccn4)C(F)(F)F)ccc3C2=O)C(=O)N1` (stereo partly drawn) [Example 48, 2-(2,6-dioxopiperidin-3-yl)-1-oxo-N-((R)-2,2,2-trifluoro-1-(pyridin-2-yl)ethyl)isoindoline-5-carboxamide], the DC50 lay within 100 to 500 nM and the Y entry is given as “** (a Y value (shown as**) of 20%<Y≤35%)”.

Regarding `O=C1CCC(N2Cc3cc(C(=O)N[C@H](c4ccccc4F)C(F)(F)F)ccc3C2=O)C(=O)N1` (stereo partly drawn) [Example 49, 2-(2,6-dioxopiperidin-3-yl)-1-oxo-N-((R)-2,2,2-trifluoro-1-(2-fluorophenyl)ethyl)isoindoline-5-carboxamide], the DC50 was less than 100 nM and the Y result was “* (a Y value (shown as *) of 0<Y≤20%)”.

Consider `O=C1CCC(N2Cc3cc(C(=O)N[C@H](c4ccccc4Cl)C(F)(F)F)ccc3C2=O)C(=O)N1` (stereo partly drawn) [Example 50, N-((R)-1-(2-chlorophenyl)-2,2,2-trifluoroethyl)-2-(2,6-dioxopiperidin-3-yl)-1-oxoisoindoline-5-carboxamide], for which the DC50 was less than 100 nM and the Y result is “* (a Y value (shown as *) of 0<Y≤20%)”.

For `C[C@H](NC(=O)c1ccc2c(c1)CN(C1CCC(=O)NC1=O)C2=O)c1ccc(F)cc1F` (stereo partly drawn) [Example 51, N-((S)-1-(2,4-difluorophenyl)ethyl)-2-(2,6-dioxopiperidin-3-yl)-1-oxoisoindoline-5-carboxamide], the DC50 was less than 100 nM and the Y result was “* (a Y value (shown as *) of 0<Y≤20%)”.

In the case of `O=C1CCC(N2Cc3cc(C(=O)N[C@H](c4cccc(C(F)(F)F)c4)C(F)(F)F)ccc3C2=O)C(=O)N1` (stereo partly drawn) [Example 52, 2-(2,6-dioxopiperidin-3-yl)-1-oxo-N-((R)-2,2,2-trifluoro-1-(3-(trifluoromethyl)phenyl)ethyl)isoindoline-5-carboxamide], the DC50 is less than 100 nM and the Y entry was “* (a Y value (shown as *) of 0<Y≤20%)”.

Regarding `O=C1CCC(N2Cc3cc(C(=O)N[C@H](C4CCC5(CCC5)CC4)C(F)(F)F)ccc3C2=O)C(=O)N1` (stereo partly drawn) [Example 53, 2-(2,6-dioxopiperidin-3-yl)-1-oxo-N-((1R)-2,2,2-trifluoro-1-(spiro[3.5]nonan-7-yl)ethyl)isoindoline-5-carboxamide], the DC50 was less than 100 nM and the Y entry is reported as “* (a Y value (shown as *) of 0<Y≤20%)”.

With `O=C1CCC(N2Cc3cc(C(=O)N[C@H](c4cccnc4)C(F)(F)F)ccc3C2=O)C(=O)N1` (stereo partly drawn) [Example 54, 2-(2,6-dioxopiperidin-3-yl)-1-oxo-N-((R)-2,2,2-trifluoro-1-(pyridin-3-yl)ethyl)isoindoline-5-carboxamide], the DC50 was 100 to 500 nM and the Y result is “** (a Y value (shown as**) of 20%<Y≤35%)”.

In the case of `C[C@H](NC(=O)c1ccc2c(c1)CN(C1CCC(=O)NC1=O)C2=O)c1ccc(Cl)cc1F` (stereo partly drawn) [Example 55, N-((S)-1-(4-chloro-2-fluorophenyl)ethyl)-2-(2,6-dioxopiperidin-3-yl)-1-oxoisoindoline-5-carboxamide], the DC50 is less than 100 nM and the Y result is on record as “* (a Y value (shown as *) of 0<Y≤20%)”.

In the case of `O=C1CCC(N2Cc3cc(C(=O)N[C@H]([C@H]4CC[C@H](O)CC4)C(F)(F)F)ccc3C2=O)C(=O)N1` (stereo partly drawn) [Example 56, 2-(2,6-dioxopiperidin-3-yl)-1-oxo-N-((R)-2,2,2-trifluoro-1-((1r,4R)-4-hydroxycyclohexyl)ethyl)isoindoline-5-carboxamide], the DC50 lay within 100 to 500 nM and the Y entry was “* (a Y value (shown as *) of 0<Y≤20%)”.

On to `O=C1CCC(N2Cc3cc(C(=O)N[C@@H](C(F)(F)F)C45CC(C4)C5)ccc3C2=O)C(=O)N1` (stereo partly drawn) [Example 57, N-((R)-1-(bicyclo[1.1.1]pentan-1-yl)-2,2,2-trifluoroethyl)-2-(2,6-dioxopiperidin-3-yl)-1-oxoisoindoline-5-carboxamide], for which the DC50 was less than 100 nM and the Y entry was “* (a Y value (shown as *) of 0<Y≤20%)”.

Consider `O=C1CCC(N2Cc3cc(C(=O)N[C@H](c4cccc(OC(F)(F)F)c4)C(F)(F)F)ccc3C2=O)C(=O)N1` (stereo partly drawn) [Example 58, 2-(2,6-dioxopiperidin-3-yl)-1-oxo-N-((R)-2,2,2-trifluoro-1-(3-(trifluoromethoxy)phenyl)ethyl)isoindoline-5-carboxamide], for which the DC50 was less than 100 nM and the Y entry is given as “* (a Y value (shown as *) of 0<Y≤20%)”.

`C[C@H](NC(=O)c1ccc2c(c1)CN(C1CCC(=O)NC1=O)C2=O)c1ccc(F)cc1Cl` (stereo partly drawn) [Example 59, N-((S)-1-(2-chloro-4-fluorophenyl)ethyl)-2-(2,6-dioxopiperidin-3-yl)-1-oxoisoindoline-5-carboxamide]: the DC50 is less than 100 nM and the Y result is reported as “* (a Y value (shown as *) of 0<Y≤20%)”.

`O=C1CC[C@@H](N2Cc3cc(C(=O)N[C@H](c4ccccc4)C(F)(F)F)ccc3C2=O)C(=O)N1` [Example 60, 2-((R)-2,6-dioxopiperidin-3-yl)-1-oxo-N-((R)-2,2,2-trifluoro-1-phenylethyl)isoindoline-5-carboxamide]: the 50% degradation concentration (DC50) was less than 100 nM and the Y entry is listed as “* (a Y value (shown as *) of 0<Y≤20%)”.

`O=C1CC[C@H](N2Cc3cc(C(=O)N[C@H](c4ccccc4)C(F)(F)F)ccc3C2=O)C(=O)N1` [Example 61, 2-((S)-2,6-dioxopiperidin-3-yl)-1-oxo-N-((R)-2,2,2-trifluoro-1-phenylethyl)isoindoline-5-carboxamide]: the DC50 was less than 100 nM and the Y result is “* (a Y value (shown as *) of 0<Y≤20%)”.

Take `O=C1CCC(N2Cc3cc(C(=O)N[C@H]([C@H]4CC[C@@H](O)CC4)C(F)(F)F)ccc3C2=O)C(=O)N1` (stereo partly drawn) [Example 62, 2-(2,6-dioxopiperidin-3-yl)-1-oxo-N-((R)-2,2,2-trifluoro-1-((1s,4S)-4-hydroxycyclohexyl)ethyl)isoindoline-5-carboxamide]: the DC50 lay in the range of 100 to 500 nM and the Y result is given as “* (a Y value (shown as *) of 0<Y≤20%)”.

On to `N#Cc1ccc([C@@H](NC(=O)c2ccc3c(c2)CN(C2CCC(=O)NC2=O)C3=O)C(F)(F)F)cc1` (stereo partly drawn) [Example 63, N-((R)-1-(4-cyanophenyl)-2,2,2-trifluoroethyl)-2-(2,6-dioxopiperidin-3-yl)-1-oxoisoindoline-5-carboxamide], for which the 50% degradation concentration (DC50) is less than 100 nM and the Y result is reported as “* (a Y value (shown as *) of 0<Y≤20%)”.

As for `N#Cc1cccc([C@@H](NC(=O)c2ccc3c(c2)CN(C2CCC(=O)NC2=O)C3=O)C(F)(F)F)c1` (stereo partly drawn) [Example 64, N-((R)-1-(3-cyanophenyl)-2,2,2-trifluoroethyl)-2-(2,6-dioxopiperidin-3-yl)-1-oxoisoindoline-5-carboxamide], the DC50 was less than 100 nM and the Y entry is reported as “* (a Y value (shown as *) of 0<Y≤20%)”.

On to `Cn1ccc([C@@H](NC(=O)c2ccc3c(c2)CN(C2CCC(=O)NC2=O)C3=O)C(F)(F)F)n1` (stereo partly drawn) [Example 65, 2-(2,6-dioxopiperidin-3-yl)-1-oxo-N-((R)-2,2,2-trifluoro-1-(1-methyl-1H-pyrazol-3-yl)ethyl)isoindoline-5-carboxamide], for which the half-maximal degradation concentration (DC50) lay in the range of 500 to 1000 nM and the Y result is reported as “** (a Y value (shown as**) of 20%<Y≤35%)”.

Regarding `O=C1CCC(N2Cc3cc(C(=O)N[C@H](c4cncnc4)C(F)(F)F)ccc3C2=O)C(=O)N1` (stereo partly drawn) [Example 66, 2-(2,6-dioxopiperidin-3-yl)-1-oxo-N-((R)-2,2,2-trifluoro-1-(pyrimidin-5-yl)ethyl)isoindoline-5-carboxamide], the DC50 lay in the range of 500 to 1000 nM and the Y result was “** (a Y value (shown as**) of 20%<Y≤35%)”.

For the compound `COc1cc(F)ccc1[C@@H](NC(=O)c1ccc2c(c1)CN(C1CCC(=O)NC1=O)C2=O)C(F)(F)F` (stereo partly drawn) [Example 67, 2-(2,6-dioxopiperidin-3-yl)-1-oxo-N-((R)-2,2,2-trifluoro-1-(4-fluoro-2-methoxyphenyl)ethyl)isoindoline-5-carboxamide], the DC50 is less than 100 nM and the Y result is “* (a Y value (shown as *) of 0<Y≤20%)”.

On to `CC(C)([C@@H](NC(=O)c1ccc2c(c1)CN(C1CCC(=O)NC1=O)C2=O)C(F)(F)F)C(F)(F)F` (stereo partly drawn) [Example 68, 2-(2,6-dioxopiperidin-3-yl)-N-((R)-1,1,1,4,4,4-hexafluoro-3,3-dimethylbutan-2-yl)-1-oxoisoindoline-5-carboxamide], for which the DC50 fell in the range of 100 to 500 nM and the Y entry is reported as “** (a Y value (shown as**) of 20%<Y≤35%)”.

For the compound `Cn1nccc1[C@@H](NC(=O)c1ccc2c(c1)CN(C1CCC(=O)NC1=O)C2=O)C(F)(F)F` (stereo partly drawn) [Example 69, 2-(2,6-dioxopiperidin-3-yl)-1-oxo-N-((R)-2,2,2-trifluoro-1-(1-methyl-1H-pyrazol-5-yl)ethyl)isoindoline-5-carboxamide], the DC50 fell in the range of 500 to 1000 nM and the Y entry is reported as “** (a Y value (shown as**) of 20%<Y≤35%)”.
